The text below walks through data of patent US8889671B2, “Compounds and methods for treating bacterial infections” (AstraZeneca AB, priority 2013, dated 2014).

Where two headings read alike, the source gives them in different places. Where only a bound is given, the exact number is not on record here.

In one experiment the test system is Haemophilus influenzae. The experiment in a line: Susceptibility testing (MIC) Assay 2, broth microdilution. Format: cell-based.
Another experiment has as its system Escherichia coli. The experiment is described as above. The format is cell-based.
The test system of another experiment is Klebsiella pneumoniae. Described as above. The format is cell-based.
For the next experiment, the system named is Pseudomonas aeruginosa. The experiment is described as above. The following applies: for MIC: PAO1, read-out: Pae MIC. Format: cell-based.
For experiment [1], the target named is Escherichia coli DNA gyrase A/B tetramer (Escherichia coli (strain K12), UniProt P0AES4+P0AES6). The experiment can be described thus: DNA gyrase supercoiling activity fluorescence polarisation assay. To be noted: 0.3 mM ATP. The format is biochemical. The gist of the method:
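IC50 derived by nonlinear regression from BODIPY-FL fluorescence anisotropy, read 60 min after quenching with labelled triplex-forming probe (pH 3.5). Reaction: 5 nM gyrase tetramer, 130 micrograms/mL relaxed plasmid, 0.3 mM ATP, 4 mM MgCl2, pH 7.5, typically 30 min at ambient temperature, 5-10 compound concentrations.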
A general note: Fluorescence polarisation rises when a labelled molecule tumbles more slowly, as on binding a larger partner.

The test system of a further experiment is Streptococcus pneumoniae. The experiment in a line: Susceptibility testing (MIC) Assay 1, broth microdilution. The format is cell-based. For orientation: Broth dilution looks for growth in wells or tubes with falling amounts of substance.
In a further experiment the test system is Streptococcus pyogenes. The experiment is described as above. Format: cell-based. To be noted: in vivo strain, read-out: Spy MIC.
For another experiment, the system named is Staphylococcus aureus. The description is as above. Format: cell-based.
The mark [2] stands for this setting: ATCC51907, Haemophilus influenzae, ATCC 51907, in vivo strain, read-out: Hin MIC.
Setting [3] is: clinical isolate, mucoid, read-out: Kpn MIC.
[4] abbreviates: Eco Gyr FP Mean IC50, E. coli DNA gyrase supercoiling.
[5] abbreviates: in vivo strain (footnote b), read-out: Spn(b) MIC.
Setting [6] is: in vivo strain (footnote c), read-out: Spn(c) MIC.
[7] abbreviates: Streptococcus pyogenes, Streptococcus pyrgenes.
Setting [8] is: Staphylococcus aureus, Staphylococcus aureus in vivo strain, MSQS, read-out: Sau(d) MIC.
Setting [9] is: Staphylococcus aureus, in vivo strain, MRQR, read-out: Sau(e) MIC.
[10] abbreviates: Staphylococcus aureus, serum, read-out: Sau(f) MIC.

For the compound `C=CC[C@H]1COC(=O)N1c1noc2c(F)c3c(cc12)CC1(C(=O)NC(=O)NC1=O)[C@H]1[C@H](C)O[C@H](C)CN31` [Example 25, (2R,4S,4aS)-8-((S)-4-Allyl-2-oxooxazolidin-3-yl)-11-fluoro-2,4-dimethyl-2,4,4a,6-tetrahydro-1H,1′H-spiro[isoxazolo[4,5-g][1,4]oxazino[4,3-a]quinoline-5,5′-pyrimidine]-2′,4′,6′(3′H)-trione], the MIC in the experiment with Haemophilus influenzae (setting [2]) was 0.78 µM; with Escherichia coli (K12, read-out: Eco MIC), 12 µM; in the experiment on Klebsiella pneumoniae (setting [3]) it was 200 µM; with Pseudomonas aeruginosa, greater than 200 µM; in the experiment with Streptococcus pneumoniae (setting [5]), 0.78 µM; in the experiment with Streptococcus pneumoniae (setting [6]), 0.78 µM. The MIC was found to be 0.78 µM in the experiment with Streptococcus pyogenes (setting [7]), 0.39 µM with Staphylococcus aureus (setting [8]), 0.39 µM in the experiment with Staphylococcus aureus (setting [9]) and 1.6 µM with Staphylococcus aureus (setting [10]). This compound gave an IC50 in experiment [1] (setting [4]) of 260 nM.
As to `C[C@@H]1CN2c3c(cc4c(N5C(=O)OC[C@@H]5c5ncccn5)noc4c3F)CC3(C(=O)NC(=O)NC3=O)[C@H]2[C@H](C)O1` [Example 64, (2R,4S,4aS)-11-fluoro-2,4-dimethyl-8-((S)-2-oxo-4-(pyrimidin-2-yl)oxazolidin-3-yl)-2,4,4a,6-tetrahydro-1H,1′H-spiro[isoxazolo[4,5-g][1,4]oxazino[4,3-a]quinoline-5,5′-pyrimidine]-2′,4′,6′(3′H)-trione], the MIC was 3.1 µM with Haemophilus influenzae (setting [2]); greater than 200 µM with Escherichia coli (K12, read-out: Eco MIC); greater than 200 µM in the experiment on Klebsiella pneumoniae (setting [3]); greater than 200 µM in the experiment with Pseudomonas aeruginosa; 12 µM in the experiment on Streptococcus pneumoniae (setting [5]); 6.2 µM in the experiment with Streptococcus pneumoniae (setting [6]). Further, the MIC with Streptococcus pyogenes (setting [7]) was 6.2 µM; in the experiment on Staphylococcus aureus (setting [8]), 6.2 µM; with Staphylococcus aureus (setting [9]), 25 µM; in the experiment on Staphylococcus aureus (setting [10]), 25 µM. The same compound yielded an IC50 in experiment [1] (setting [4]) greater than 2100 nM.
Regarding `C[C@@H]1CN2c3c(cc4c(N5C[C@H](CN=[N+]=[N-])OC5=O)noc4c3F)CC3(C(=O)NC(=O)NC3=O)[C@H]2[C@H](C)O1` [Example 44, (2R,4S,4aS)-8-[(5R)-5-(Azidomethyl)-2-oxo-1,3-oxazolidin-3-yl]-11-fluoro-2,4-dimethyl-1,2,4,4a-tetrahydro-2′H,6H-spiro[1,4-oxazino[4,3-a][1,2]oxazolo[4,5-g]quinoline-5,5′-pyrimidine]-2′,4′,6′(1′H,3′H)-trione], the MIC in the experiment on Haemophilus influenzae (setting [2]) was 0.78 µM; in the experiment on Escherichia coli (K12, read-out: Eco MIC), 50 µM; with Klebsiella pneumoniae (setting [3]) it was greater than 200 µM; with Pseudomonas aeruginosa it was greater than 200 µM; in the experiment on Streptococcus pneumoniae (setting [5]), 0.78 µM; in the experiment on Streptococcus pneumoniae (setting [6]), 1.6 µM. The MIC with Streptococcus pyogenes (setting [7]) worked out at 0.78 µM; in the experiment with Staphylococcus aureus (setting [8]), 0.78 µM; in the experiment on Staphylococcus aureus (setting [9]) it was 3.1 µM; in the experiment on Staphylococcus aureus (setting [10]) it was 3.1 µM. The compound also registered an IC50 in experiment [1] (setting [4]) of 530 nM.
`C[C@@H]1CN2c3c(cc4c(N5C[C@@H](CF)OC5=O)noc4c3Cl)CC3(C(=O)NC(=O)NC3=O)[C@H]2[C@H](C)O1` [Example 32, (2R,4S,4aS)-11-Chloro-8-((S)-5-(fluoromethyl)-2-oxooxazolidin-3-yl)-2,4-dimethyl-2,4,4a,6-tetrahydro-1H,1′H-spiro[isoxazolo[4,5-g][1,4]oxazino[4,3-a]quinoline-5,5′-pyrimidine]-2′,4′,6′(3′H)-trione]: the MIC in the experiment on Haemophilus influenzae (setting [2]) was 0.27 µM; in the experiment on Escherichia coli (K12, read-out: Eco MIC), 1.5 µM; in the experiment with Klebsiella pneumoniae (setting [3]), 200 µM; in the experiment with Pseudomonas aeruginosa it was 200 µM; in the experiment on Streptococcus pneumoniae (setting [5]), 0.39 µM; in the experiment on Streptococcus pneumoniae (setting [6]), 0.39 µM. Besides, the MIC in the experiment with Streptococcus pyogenes (setting [7]) is less than 0.2 µM; in the experiment on Staphylococcus aureus (setting [8]), less than 0.2 µM; with Staphylococcus aureus (setting [9]) it was 0.78 µM; in the experiment with Staphylococcus aureus (setting [10]), 0.39 µM. This compound registered an IC50 in experiment [1] (setting [4]) of 630 nM.
As for `C[C@@H]1CN2c3c(cc4c(N5C(=O)OC[C@@H]5CN=[N+]=[N-])noc4c3F)CC3(C(=O)NC(=O)NC3=O)[C@H]2[C@H](C)O1` [Example 48], the MIC with Haemophilus influenzae (ATCC 51907, in vivo strain, read-out: Hin MIC) was 6.2 µM; in the experiment on Escherichia coli (K12, read-out: Eco MIC), 200 µM; with Klebsiella pneumoniae (setting [3]) it was greater than 200 µM; in the experiment with Streptococcus pneumoniae (setting [5]), 12 µM; with Streptococcus pneumoniae (setting [6]), 12 µM; with Streptococcus pyogenes (Streptococcus pyrgenes) it was 6.2 µM. The MIC in the experiment with Staphylococcus aureus (Staphylococcus aureus in vivo strain, MSQS, read-out: Sau(d) MIC) is 6.2 µM; in the experiment on Staphylococcus aureus (setting [9]), 12 µM; in the experiment on Staphylococcus aureus (setting [10]), 50 µM. For the same compound, in the experiment on Pseudomonas aeruginosa (PAO1), the “Pae MIC” value is greater than 200 µM. Also, the IC50 in experiment [1] (E. coli DNA gyrase supercoiling, read-out: Eco Gyr FP Mean IC50) is greater than 2100 nM.
On to `CC[C@H]1COC(=O)N1c1noc2c(F)c3c(cc12)CC1(C(=O)NC(=O)NC1=O)[C@H]1[C@H](C)O[C@H](C)CN31` [Example 6, (2R,4S,4aS)-8-[(4S)-4-Ethyl-2-oxo-1,3-oxazolidin-3-yl]-11-fluoro-2,4-dimethyl-1,2,4,4a-tetrahydro-2′H,6H-spiro[1,4-oxazino[4,3-a][1,2]oxazolo[4,5-g]quinoline-5,5′-pyrimidine]-2′,4′,6′(1′H,3′H)-trione], for which the MIC was 3.1 µM in the experiment on Haemophilus influenzae (setting [2]); 100 µM in the experiment with Escherichia coli (K12, read-out: Eco MIC); 121 µM in the experiment with Klebsiella pneumoniae (setting [3]); greater than 200 µM in the experiment with Pseudomonas aeruginosa; 6.2 µM in the experiment with Streptococcus pneumoniae (setting [5]); 3.1 µM in the experiment with Streptococcus pneumoniae (setting [6]). Moreover, the MIC with Streptococcus pyogenes (setting [7]) was found to be 3.1 µM; in the experiment on Staphylococcus aureus (setting [8]) it was 1.6 µM; in the experiment on Staphylococcus aureus (setting [9]), 6.2 µM; with Staphylococcus aureus (setting [10]), 12 µM. For the same compound, the IC50 in experiment [1] (setting [4]) turned out to be 3300 nM.
In the case of `COC[C@H]1[C@@H](C)OC(=O)N1c1noc2c(F)c3c(cc12)CC1(C(=O)NC(=O)NC1=O)[C@H]1[C@H](C)O[C@H](C)CN31` [Example 79, (2R,4S,4aS)-11-fluoro-8-((4S,5R)-4-(methoxymethyl)-5-methyl-2-oxooxazolidin-3-yl)-2,4-dimethyl-2,4,4a,6-tetrahydro-1H,1′H-spiro[isoxazolo[4,5-g][1,4]oxazino[4,3-a]quinoline-5,5′-pyrimidine]-2′,4′,6′(3′H)-trione], the MIC with Haemophilus influenzae (ATCC49247, Haemophilus influenzae, ATCC 49247, read-out: Hin MIC) was 0.5 µg/mL; in the experiment on Escherichia coli (ATCC25922, Escherichia coli, in vivo strain, ATCC 25922, read-out: Eco(b) MIC) it was 32 µg/mL; in the experiment with Escherichia coli (ATCC35218, Escherichia coli, ATCC 35218, read-out: Eco(c) MIC) it was 64 µg/mL; in the experiment with Klebsiella pneumoniae (ATCC700603, ATCC 700603, read-out: Kpn(e) MIC), greater than 64 µg/mL; in the experiment on Klebsiella pneumoniae (clinical isolate, mucoid, read-out: Kpn(d) MIC), greater than 64 µg/mL; in the experiment with Pseudomonas aeruginosa (Pseudomonoas aeruginosa), greater than 64 µg/mL. Further, the MIC in the experiment on Streptococcus pneumoniae (ATCC49619, Streptococcus pneumoniae, ATCC 49619, read-out: Spn(c) MIC) stood at 1 µg/mL; in the experiment on Streptococcus pneumoniae (in vivo strain, read-out: Spn(b) MIC), 2 µg/mL; in the experiment on Streptococcus pyogenes (Streptococcus pyogenes, Streptococcus pyrogenes), 1 µg/mL; in the experiment with Staphylococcus aureus (Staphylococcus aureus, ATCC29213, Staphylococcus aureus, in vivo strain, ATCC 29213, read-out: Sau(d) MIC), 1 µg/mL; with Staphylococcus aureus (Staphylococcus aureus, MRSA, Staphylococcus aureus, in vivo strain, MRSA, read-out: Sau(f) MIC), 1 µg/mL; in the experiment with Staphylococcus aureus (setting [9]), 2 µg/mL. The IC50 in experiment [1] (setting [4]) was greater than 2100 nM.
As for `COC[C@@H]1CN(c2noc3c(Cl)c4c(cc23)CC2(C(=O)NC(=O)NC2=O)[C@H]2[C@H](C)O[C@H](C)CN42)C(=O)O1` [Example 20], the MIC with Haemophilus influenzae (setting [2]) was 0.39 µM; in the experiment with Escherichia coli (K12, read-out: Eco MIC), 25 µM; with Klebsiella pneumoniae (setting [3]), greater than 200 µM; in the experiment on Pseudomonas aeruginosa, greater than 200 µM; in the experiment with Streptococcus pneumoniae (setting [5]), 0.28 µM; in the experiment with Streptococcus pneumoniae (setting [6]), 0.28 µM. Besides, the MIC came out at 0.28 µM in the experiment on Streptococcus pyogenes (setting [7]), 0.28 µM with Staphylococcus aureus (setting [8]), 1.1 µM in the experiment with Staphylococcus aureus (setting [9]) and 0.39 µM in the experiment on Staphylococcus aureus (setting [10]). The 50% inhibitory concentration (IC50) in experiment [1] (setting [4]) amounted to 420 nM.
With `C[C@@H]1CN2c3c(cc4c(N5C[C@@H](C#N)OC5=O)noc4c3F)CC3(C(=O)NC(=O)NC3=O)[C@H]2[C@H](C)O1` [Example 76, (5S)-3-[(2R,4S,4aS)-11-fluoro-2,4-dimethyl-2′,4′,6′-trioxo-1,1′,2,3′,4,4′,4a,6′-octahydro-2′H,6H-spiro[1,4-oxazino[4,3-a][1,2]oxazolo[4,5-g]quinoline-5,5′-pyrimidin]-8-yl]-2-oxo-1,3-oxazolidine-5-carbonitrile], the MIC with Haemophilus influenzae (setting [2]) is 0.78 µM; in the experiment on Escherichia coli (K12, read-out: Eco MIC), 50 µM; in the experiment with Klebsiella pneumoniae (setting [3]) it was greater than 200 µM; in the experiment with Pseudomonas aeruginosa, greater than 200 µM; in the experiment with Streptococcus pneumoniae (setting [5]), 0.39 µM; in the experiment with Streptococcus pneumoniae (setting [6]), 0.78 µM. The MIC in the experiment on Streptococcus pyogenes (setting [7]) is 0.39 µM; in the experiment with Staphylococcus aureus (setting [8]) it was 0.39 µM; with Staphylococcus aureus (setting [9]), 1.6 µM; in the experiment on Staphylococcus aureus (setting [10]), 0.78 µM. The compound also showed an IC50 in experiment [1] (setting [4]) of 550 nM.

By IC50 is commonly meant the midpoint of a concentration-inhibition curve.
